The values that follow come from article PMC6562704, “Antihypertensive Effect in Vivo of QAGLSPVR and Its Transepithelial Transport Through the Caco-2 Cell Monolayer” (Marine Drugs, 2019).

pIC50: −log10 of the molar value. Ends that are not written are not given here.

One data set relates to SHRs. To be noted: cited from earlier work. The source says: Bioactive peptides are exposed through systemic circulation in human tissues. Unfortunately, bioactive peptides may be hydrolyzed before they reach the target tissues during passage through and absorption by the small intestine. […] For example, FKGRYYP was identified from ch ...
Data set [1] addresses angiotensin-I-converting enzyme (ACE). Conditions: in vitro; read-out: IC50 for ACEI activity in vitro; cited from earlier work. An excerpt:
In our previous studies, enzymatic hydrolysates of tilapia skin gelatin were obtained using simulated gastrointestinal digestion. The hydrolysates were isolated and purified, and QAGLSPVR was obtained by successive chromatography of the gelatin hydrolysates. […] The present study aims to confirm the in vivo antihypertensive effect of QAGLSPVR by using the SHR model. […] Bioactive peptides are exposed through systemic circulation in human tissues. Unfortunately, bioactive peptides may be hydrolyzed before they reach the target tissues during passage through and absorption by the small intestine. […] For example, FKGRYYP was identified from ch ...

Data set [2] concerns Caco-2 cell monolayer. The data set is described as follows: Transepithelial transport through the Caco-2 cell monolayer. It is filed as in vitro ADME, human. The procedure:
Caco-2 cells (1 × 10^5 cells/well) were routinely cultured in Dublecco’s modified Eagle’s medium with 15% FBS, […] streptomycin and 100 U/mL penicillin. Caco-2 cell monolayer was cultured in six-well Transwell plastic plates in a humidified incubator with 5% CO2 at 37 °C and Caco-2 cell monolayer can be used to perform transport experiments when the transepithelial resistance is higher than 400 Ω/cm^2 [29]. The Caco-2 cell culture medium was substituted with Hank’s balanced salt solution (HBSS) buffer (preheated at 37 °C for 30 min) prior to the transport experiment. The cell monolayer was cultured in HBSS buffer and maintained at 37 °C for 2 h. QAGLSPVR (2 mg/mL, 1.5 mL, dissolved in HBSS) was added to the AP of the cell monolayer, while HBSS buffer (2.5 mL) was added to the BL. The Caco-2 cell monolayer was cultured for 0.5, 1, or 2 h in an incubator at 37 °C. The AP and BL fractions were collected at different times. QAGLSPVR concentrations in the BL were detected by UPLC-Q-Orbitrap-MS^2 analysis according to our previous method, and the transport percentages of QAGLSPVR at different times were calculated.
The transport patterns of QAGLSPVR through the Caco-2 cell monolayer were studied using different transport inhibitors and enhancers. In brief, Gly-Sar, wortmannin, and cytochalasin D were dissolved in DMSO (final concentration of DMSO in HBSS = 0.05%) and final concentrations of25 mM, 500 nM, and 0.5 μg/mL, respectively. The Caco-2 cell monolayer was pre-incubated with Gly-Sar (a peptide transporter PepT1 substrate), wortmannin (atranscytosis inhibitor), or cytochalasin D (a TJ disruptor)for 30 min followed by addition of 1.5 mL of 2 mg/mL QAGLSPVR to the AP and 2.5 mL of fresh HBSS to the BL. After 2 h of incubation, the QAGLSPVR content in the BL was determined via UPLC-Q-Orbitrap-MS^2 analysis according to our previous method, and transport percentages were calculated.
(Passage across Caco-2 layers is used to estimate intestinal permeability.)

Data set [3] deals with Caco-2 cell monolayer. Conditions: cited from earlier work. The procedure: QAGLSPVR was proven to produce a clear antihypertensive effect on SHRs in this study. To validate whether QAGLSPVR could be completely absorbed to regulate blood pressure, the transport percentage of QAGLSPVR was evaluated via the Caco-2 cell monolayer model. Caco-2 cells can be used as an in vitro model of the human intestinal epithelium due to the various brush border membrane enzymes characterizing these cells. At least eight membrane enzymes are expressed by Caco-2 cells. The brush border membrane enzymes are membrane peptidases and can hydrolyze peptides into short fragments prior ...

On to “FKGRYYP [peptide identified from chicken muscle hydrolysates]”, for which the “antihypertensive activity after oral administration to SHRs (in words)” value in the data set with SHRs is recorded as “no antihypertensive activity”. Moreover, the pIC50 in data set [1] is 3.26.

On to QAGLSPVR [QAGLSPVR], for which the “effect of cytochalasin D on QAGLSPVR transport (in words)” value in the data set on Caco-2 cell monolayer [2] (Caco-2, AP to BL, 30 min pre-incubation with 0.5 μg/mL cytochalasin D (TJ disruptor), 2 mg/mL peptide, HBSS, 2 h, UPLC-Q-Orbitrap-MS^2, p < 0.05) is recorded as “significantly increased”. Besides, the “effect of wortmannin on QAGLSPVR transport (in words)” value in the data set with Caco-2 cell monolayer [2] (Caco-2, AP to BL, 30 min pre-incubation with 500 nM wortmannin (transcytosis inhibitor), 2 mg/mL peptide, HBSS, 2 h, UPLC-Q-Orbitrap-MS^2, p > 0.05) is “did not significantly affect”. The “effect of Gly-Sar on QAGLSPVR transport (in words)” value in the data set on Caco-2 cell monolayer [2] (Caco-2, AP to BL, 30 min pre-incubation with 25 mM Gly-Sar (PepT1 substrate), 2 mg/mL peptide, HBSS, 2 h, UPLC-Q-Orbitrap-MS^2, p > 0.05) was “no significant effect”. The “integrity on transport through the Caco-2 cell monolayer (in words)” value in the data set with Caco-2 cell monolayer [2] (Caco-2 monolayer, AP to BL, HBSS, 2 mg/mL, 37 °C, 0.5-2 h, UPLC-Q-Orbitrap-MS^2) was “transported intact”. The transport percentage in the data set with Caco-2 cell monolayer [2] (Caco-2 monolayer, AP to BL, six-well Transwell, transepithelial resistance > 400 Ω/cm^2, HBSS, 2 mg/mL peptide (1.5 mL) in AP, 2.5 mL HBSS in BL, 37 °C, 2 h, UPLC-Q-Orbitrap-MS^2, mean ± SD) is on record as 3.5%.

For the substance QIGLF, the “absorption through the Caco-2 cell monolayer (in words)” value with Caco-2 cell monolayer [3] was “absorbed intact”.

RKQLQGVN: the “absorption through the Caco-2 cell monolayer (in words)” value in the data set with Caco-2 cell monolayer [3] is listed as “absorbed intact”.

For TNGIIR, in the data set on Caco-2 cell monolayer [3], the “absorption through the Caco-2 cell monolayer (in words)” value was “absorbed intact”.

For YLGYLEQ, the “absorption through the Caco-2 cell monolayer (in words)” value in the data set on Caco-2 cell monolayer [3] is listed as “absorbed intact”.

A word on the pIC50: it is −log10 of the IC50, conventionally taken in molar units.
